Counter-ions that a name gives are not always drawn.
target: T1, human TRPC6 (Homo sapiens, UniProt Q9Y210); assay: TRPC6 calcium flux assay (FLIPR, OAG-stimulated calcium influx); format: cell-based; settings: HEK293 cells stably transfected with human TRPC6, read-out: hTRPC6 Potency
T1 construct: expressed in transfected cells
T1 sequence (Q9Y210 1-931): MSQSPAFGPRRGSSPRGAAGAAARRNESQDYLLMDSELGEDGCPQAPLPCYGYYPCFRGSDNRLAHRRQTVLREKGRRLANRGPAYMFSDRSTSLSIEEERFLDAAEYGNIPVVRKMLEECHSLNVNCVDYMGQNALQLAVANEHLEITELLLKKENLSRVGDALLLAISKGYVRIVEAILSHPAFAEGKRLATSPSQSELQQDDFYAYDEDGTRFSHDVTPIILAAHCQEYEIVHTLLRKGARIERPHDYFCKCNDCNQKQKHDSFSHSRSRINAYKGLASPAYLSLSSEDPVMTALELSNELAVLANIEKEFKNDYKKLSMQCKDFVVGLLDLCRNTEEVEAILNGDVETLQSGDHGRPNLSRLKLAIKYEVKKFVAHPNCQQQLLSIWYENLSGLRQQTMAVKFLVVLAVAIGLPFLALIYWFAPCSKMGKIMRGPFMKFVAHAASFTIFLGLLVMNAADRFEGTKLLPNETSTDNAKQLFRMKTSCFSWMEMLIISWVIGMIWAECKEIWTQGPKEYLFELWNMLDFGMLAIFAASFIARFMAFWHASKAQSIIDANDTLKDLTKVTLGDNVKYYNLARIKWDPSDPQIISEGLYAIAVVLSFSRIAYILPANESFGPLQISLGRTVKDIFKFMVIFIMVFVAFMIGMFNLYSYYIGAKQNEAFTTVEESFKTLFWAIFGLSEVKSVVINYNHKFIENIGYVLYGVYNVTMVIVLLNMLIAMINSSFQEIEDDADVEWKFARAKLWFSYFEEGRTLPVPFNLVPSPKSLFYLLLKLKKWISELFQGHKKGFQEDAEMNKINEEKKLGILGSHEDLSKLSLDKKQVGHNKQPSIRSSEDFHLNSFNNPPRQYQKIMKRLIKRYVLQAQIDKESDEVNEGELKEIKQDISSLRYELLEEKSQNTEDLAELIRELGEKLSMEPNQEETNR
Outline: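 IC50 derived by plotting background-corrected peak fluorescence (180 s window, normalized to OAG-triggered signal vs buffer) against dose. Stable human TRPC6 HEK293 line was dye-loaded, exposed to compound 25 min, then challenged with 50 uM final OAG in 2 mM Ca2+ HEPES buffer pH 7.2, 0.5% DMSO.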

| IC50 [nM] | Structure (SMILES) |
| --- | --- |
| 2920 | N[C@@H]1CCCN(c2nc3ccccc3n2Cc2ccc3ccncc3c2)C1 [Example 293, (R)-1-(1-(isoquinolin-7-ylmethyl)-1H-benzo[d]imidazol-2-yl)piperidin-3-amine] |
| 5.07 | C[C@H](c1ccc(C#N)cn1)n1c(N2CCC[C@H](N)C2)nc2ccccc21 [Example 295, 6-((R)-1-(2-((S)-3-aminopiperidin-1-yl)-1H-benzo[d]imidazol-1-yl)ethyl)nicotinonitrile hydrochloride] |
| 7.65 | C[C@@H](c1ccc(C#N)cn1)n1c(N2CCC[C@H](N)C2)nc2ccccc21 [Example 296, 6-((S)-1-(2-((S)-3-aminopiperidin-1-yl)-1H-benzo[d]imidazol-1-yl)ethyl)nicotinonitrile hydrochloride] |
| 78.5 | C[C@H](c1ccc(C#N)cn1)n1c(N2CC[C@@H](F)[C@H](N)C2)nc2ccccc21 [Example 297, 6-((R)-1-(2-((3R,4R)-3-amino-4-fluoropiperidin-1-yl)-1H-benzo[d]imidazol-1-yl)ethyl)nicotinonitrile hydrochloride] |
| 17.2 | C[C@@H](c1ccc(C#N)cn1)n1c(N2CC[C@@H](F)[C@H](N)C2)nc2ccccc21 [Example 298, 6-((S)-1-(2-((3R,4R)-3-amino-4-fluoropiperidin-1-yl)-1H-benzo[d]imidazol-1-yl)ethyl)nicotinonitrile hydrochloride] |
| 8.76 | CC[C@H](c1ccc(C#N)cn1)n1c(N2CCC[C@H](N)C2)nc2ccccc21 [Example 299, 6-((R)-1-(2-((S)-3-aminopiperidin-1-yl)-1H-benzo[d]imidazol-1-yl)propyl)nicotinonitrile hydrochloride] |
| 406 | CC[C@@H](c1ccc(C#N)cn1)n1c(N2CCC[C@H](N)C2)nc2ccccc21 [Example 300, 6-((S)-1-(2-((S)-3-aminopiperidin-1-yl)-1H-benzo[d]imidazol-1-yl)propyl)nicotinonitrile hydrochloride] |
| 217 | N#Cc1ccc(Cn2c(N3CC[C@H](O)[C@H](N)C3)nc3ccc(F)cc32)nc1 [Example 311, 6-((2-((3R,4S)-3-amino-4-hydroxypiperidin-1-yl)-6-fluoro-1H-benzo[d]imidazol-1-yl)methyl)nicotinonitrile] |
| 15800 | C[C@H](c1ccc(C#N)cc1)n1c(N2CCC[C@H](N)C2)nc2ccccc21 [Example 313, 4-((R)-1-(2-((S)-3-aminopiperidin-1-yl)-1H-benzo[d]imidazol-1-yl)ethyl)benzonitrile hydrochloride] |
| > 50000 | C[C@@H](c1ccc(C#N)cc1)n1c(N2CCC[C@H](N)C2)nc2ccccc21 [Example 314, 4-((S)-1-(2-((S)-3-aminopiperidin-1-yl)-1H-benzo[d]imidazol-1-yl)ethyl)benzonitrile hydrochloride] |
| > 50000 | N#Cc1ccc(Cn2c(N3CCC[C@H](N)C3)nc3ccccc32)c(F)c1 [Example 315, (S)-4-((2-(3-aminopiperidin-1-yl)-1H-benzo[d]imidazol-1-yl)methyl)-3-fluorobenzonitrile hydrochloride] |
| 2.04 | N[C@H]1CCCN(c2nc3ccccc3n2Cc2ccc(Cl)cc2)C1 [Example 316, (S)-1-(1-(4-chlorobenzyl)-1H-benzo[d]imidazol-2-yl)piperidin-3-amine hydrochloride] |
| 1360 | C[C@H](c1ccc(C#N)cc1)n1c(N2CC[C@H](F)[C@H](N)C2)nc2ccccc21 [Example 317, 4-((R)-1-(2-((3R,4S)-3-amino-4-fluoropiperidin-1-yl)-1H-benzo[d]imidazol-1-yl)ethyl)benzonitrile hydrochloride] |
| 37.7 | C[C@@H](c1ccc(C#N)cc1)n1c(N2CC[C@H](F)[C@H](N)C2)nc2ccccc21 [Example 318, 4-((S)-1-(2-((3R,4S)-3-amino-4-fluoropiperidin-1-yl)-1H-benzo[d]imidazol-1-yl)ethyl)benzonitrile hydrochloride] |
| 456 | C[C@H](c1ccc(C#N)cc1)n1c(N2CC[C@@H](F)[C@H](N)C2)nc2ccccc21 [Example 319, 4-((R)-1-(2-((3R,4R)-3-amino-4-fluoropiperidin-1-yl)-1H-benzo[d]imidazol-1-yl)ethyl)benzonitrile hydrochloride] |
| 12 | C[C@@H](c1ccc(C#N)cc1)n1c(N2CC[C@@H](F)[C@H](N)C2)nc2ccccc21 [Example 320, 4-((S)-1-(2-((3R,4R)-3-amino-4-fluoropiperidin-1-yl)-1H-benzo[d]imidazol-1-yl)ethyl)benzonitrile hydrochloride] |
| 4.07 | N#Cc1ccc(Cn2c(N3CCC[C@H](N)C3)nc3ccccc32)c(Cl)c1 [Example 321, (S)-4-((2-(3-aminopiperidin-1-yl)-1H-benzo[d]imidazol-1-yl)methyl)-3-chlorobenzonitrile hydrochloride] |

Continued, compound first:

| Structure (SMILES) | IC50 [nM] |
| --- | --- |
| N[C@@H]1CN(c2nc3cc(F)c(F)cc3n2Cc2ccc(F)cn2)CC[C@@H]1F [Example 304, (3R,4S)-1-(5,6-difluoro-1-((5-fluoropyridin-2-yl)methyl)-1H-benzo[d]imidazol-2-yl)-4-fluoropiperidin-3-amine] | 52.4 |
| N[C@@H]1CN(c2nc3ccc(C(F)(F)F)cc3n2Cc2ncc(F)cn2)CC[C@@H]1F [Example 305, (3R,4S)-4-fluoro-1-(1-((5-fluoropyrimidin-2-yl)methyl)-6-(trifluoromethyl)-1H-benzo[d]imidazol-2-yl)piperidin-3-amine] | 0.288 |
| N[C@@H]1CN(c2nc3cc(C(F)(F)F)ccc3n2Cc2ncc(F)cn2)CC[C@@H]1F [Example 306, (3R,4S)-4-fluoro-1-(1-((5-fluoropyrimidin-2-yl)methyl)-5-(trifluoromethyl)-1H-benzo[d]imidazol-2-yl)piperidin-3-amine] | 1430 |
| N[C@@H]1CN(c2nc3cc(F)c(F)cc3n2Cc2ccc(F)cn2)CCC1(F)F [Example 307, (R)-1-(5,6-difluoro-1-((5-fluoropyridin-2-yl)methyl)-1H-benzo[d]imidazol-2-yl)-4,4-difluoropiperidin-3-amine] | 376 |
| N[C@@H]1CN(c2nc3ccc(C(F)(F)F)cc3n2CC(=O)N2CCC2)CC[C@@H]1F [Example 308, 2-(2-((3R,4S)-3-amino-4-fluoropiperidin-1-yl)-6-(trifluoromethyl)-1H-benzo[d]imidazol-1-yl)-1-(azetidin-1-yl)ethan-1-one] | > 3750 |
| N[C@@H]1CN(c2nc3cc(C(F)(F)F)ccc3n2CC(=O)N2CCC2)CC[C@@H]1F [Example 309, 2-(2-((3R,4S)-3-amino-4-fluoropiperidin-1-yl)-5-(trifluoromethyl)-1H-benzo[d]imidazol-1-yl)-1-(azetidin-1-yl)ethan-1-one] | 280 |
| CC1(C)CCCN1C(=O)Cn1c(N2CC[C@@H](F)[C@H](N)C2)nc2cc(F)c(F)cc21 [Example 310, 2-(2-((3R,4R)-3-amino-4-fluoropiperidin-1-yl)-5,6-difluoro-1H-benzo[d]imidazol-1-yl)-1-(2,2-dimethylpyrrolidin-1-yl)ethan-1-one] | 765 |
| N#Cc1ccc(Cn2c(N3CC[C@H](O)[C@H](N)C3)nc3cc(F)ccc32)nc1 [Example 312, 6-((2-((3R,4S)-3-amino-4-hydroxypiperidin-1-yl)-5-fluoro-1H-benzo[d]imidazol-1-yl)methyl)nicotinonitrile] | 2860 |
| C[C@H](c1ccc(Cl)cc1Cl)n1c(N2CC[C@@H](F)[C@H](N)C2)nc2cc(F)c(F)cc21 [Example 322, (3R,4R)-1-(1-((1R)-1-(2,4-dichlorophenyl)ethyl)-5,6-difluoro-1H-benzimidazol-2-yl)-4-fluoro-3-piperidinamine] | 1450 |
| C[C@@H](c1ccc(Cl)cc1Cl)n1c(N2CC[C@@H](F)[C@H](N)C2)nc2cc(F)c(F)cc21 [Example 323, (3R,4R)-1-(1-((1S)-1-(2,4-dichlorophenyl)ethyl)-5,6-difluoro-1H-benzimidazol-2-yl)-4-fluoro-3-piperidinamine] | > 3750 |
| C[C@H](c1ccccc1Cl)n1c(N2CC[C@@H](F)[C@H](N)C2)nc2cc(F)c(F)cc21 [Example 324, (3R,4R)-1-(1-((1R)-1-(2-chlorophenyl)ethyl)-5,6-difluoro-1H-benzimidazol-2-yl)-4-fluoro-3-piperidinamine] | > 3750 |
| C[C@@H](c1ccccc1Cl)n1c(N2CC[C@@H](F)[C@H](N)C2)nc2cc(F)c(F)cc21 [Example 325, (3R,4R)-1-(1-((1S)-1-(2-chlorophenyl)ethyl)-5,6-difluoro-1H-benzimidazol-2-yl)-4-fluoro-3-piperidinamine] | 743 |

From patent publication US11332459B2 (TEIJIN PHARMA LIMITED, priority 2017, dated 2022)
